pIC50: −log10 of the molar value.

In test [1] the target is T1, Piezo1 (Mus musculus, UniProt E2JF22).
T1 construct: native channel in freshly isolated brain capillary endothelial cells
In words: single-channel patch clamp (cell-attached concentration-response with Yoda1; outside-out patches with PIP2 in pipette). It counts as cell-based. A general note: In patch-clamp work, channel activity is measured electrically.

Test [2] deals with T2, Piezo1 (Mus musculus, UniProt E2JF22, R2482H).
T2 construct: mutant channel in capillary endothelial cells of Piezo1EC-Mutant mice
In words: cell-attached single-channel patch clamp, […] PIP2, no Yoda1 ([…] inhibition). In kind it is cell-based.

T2 sequence (E2JF22 whole entry R2482H): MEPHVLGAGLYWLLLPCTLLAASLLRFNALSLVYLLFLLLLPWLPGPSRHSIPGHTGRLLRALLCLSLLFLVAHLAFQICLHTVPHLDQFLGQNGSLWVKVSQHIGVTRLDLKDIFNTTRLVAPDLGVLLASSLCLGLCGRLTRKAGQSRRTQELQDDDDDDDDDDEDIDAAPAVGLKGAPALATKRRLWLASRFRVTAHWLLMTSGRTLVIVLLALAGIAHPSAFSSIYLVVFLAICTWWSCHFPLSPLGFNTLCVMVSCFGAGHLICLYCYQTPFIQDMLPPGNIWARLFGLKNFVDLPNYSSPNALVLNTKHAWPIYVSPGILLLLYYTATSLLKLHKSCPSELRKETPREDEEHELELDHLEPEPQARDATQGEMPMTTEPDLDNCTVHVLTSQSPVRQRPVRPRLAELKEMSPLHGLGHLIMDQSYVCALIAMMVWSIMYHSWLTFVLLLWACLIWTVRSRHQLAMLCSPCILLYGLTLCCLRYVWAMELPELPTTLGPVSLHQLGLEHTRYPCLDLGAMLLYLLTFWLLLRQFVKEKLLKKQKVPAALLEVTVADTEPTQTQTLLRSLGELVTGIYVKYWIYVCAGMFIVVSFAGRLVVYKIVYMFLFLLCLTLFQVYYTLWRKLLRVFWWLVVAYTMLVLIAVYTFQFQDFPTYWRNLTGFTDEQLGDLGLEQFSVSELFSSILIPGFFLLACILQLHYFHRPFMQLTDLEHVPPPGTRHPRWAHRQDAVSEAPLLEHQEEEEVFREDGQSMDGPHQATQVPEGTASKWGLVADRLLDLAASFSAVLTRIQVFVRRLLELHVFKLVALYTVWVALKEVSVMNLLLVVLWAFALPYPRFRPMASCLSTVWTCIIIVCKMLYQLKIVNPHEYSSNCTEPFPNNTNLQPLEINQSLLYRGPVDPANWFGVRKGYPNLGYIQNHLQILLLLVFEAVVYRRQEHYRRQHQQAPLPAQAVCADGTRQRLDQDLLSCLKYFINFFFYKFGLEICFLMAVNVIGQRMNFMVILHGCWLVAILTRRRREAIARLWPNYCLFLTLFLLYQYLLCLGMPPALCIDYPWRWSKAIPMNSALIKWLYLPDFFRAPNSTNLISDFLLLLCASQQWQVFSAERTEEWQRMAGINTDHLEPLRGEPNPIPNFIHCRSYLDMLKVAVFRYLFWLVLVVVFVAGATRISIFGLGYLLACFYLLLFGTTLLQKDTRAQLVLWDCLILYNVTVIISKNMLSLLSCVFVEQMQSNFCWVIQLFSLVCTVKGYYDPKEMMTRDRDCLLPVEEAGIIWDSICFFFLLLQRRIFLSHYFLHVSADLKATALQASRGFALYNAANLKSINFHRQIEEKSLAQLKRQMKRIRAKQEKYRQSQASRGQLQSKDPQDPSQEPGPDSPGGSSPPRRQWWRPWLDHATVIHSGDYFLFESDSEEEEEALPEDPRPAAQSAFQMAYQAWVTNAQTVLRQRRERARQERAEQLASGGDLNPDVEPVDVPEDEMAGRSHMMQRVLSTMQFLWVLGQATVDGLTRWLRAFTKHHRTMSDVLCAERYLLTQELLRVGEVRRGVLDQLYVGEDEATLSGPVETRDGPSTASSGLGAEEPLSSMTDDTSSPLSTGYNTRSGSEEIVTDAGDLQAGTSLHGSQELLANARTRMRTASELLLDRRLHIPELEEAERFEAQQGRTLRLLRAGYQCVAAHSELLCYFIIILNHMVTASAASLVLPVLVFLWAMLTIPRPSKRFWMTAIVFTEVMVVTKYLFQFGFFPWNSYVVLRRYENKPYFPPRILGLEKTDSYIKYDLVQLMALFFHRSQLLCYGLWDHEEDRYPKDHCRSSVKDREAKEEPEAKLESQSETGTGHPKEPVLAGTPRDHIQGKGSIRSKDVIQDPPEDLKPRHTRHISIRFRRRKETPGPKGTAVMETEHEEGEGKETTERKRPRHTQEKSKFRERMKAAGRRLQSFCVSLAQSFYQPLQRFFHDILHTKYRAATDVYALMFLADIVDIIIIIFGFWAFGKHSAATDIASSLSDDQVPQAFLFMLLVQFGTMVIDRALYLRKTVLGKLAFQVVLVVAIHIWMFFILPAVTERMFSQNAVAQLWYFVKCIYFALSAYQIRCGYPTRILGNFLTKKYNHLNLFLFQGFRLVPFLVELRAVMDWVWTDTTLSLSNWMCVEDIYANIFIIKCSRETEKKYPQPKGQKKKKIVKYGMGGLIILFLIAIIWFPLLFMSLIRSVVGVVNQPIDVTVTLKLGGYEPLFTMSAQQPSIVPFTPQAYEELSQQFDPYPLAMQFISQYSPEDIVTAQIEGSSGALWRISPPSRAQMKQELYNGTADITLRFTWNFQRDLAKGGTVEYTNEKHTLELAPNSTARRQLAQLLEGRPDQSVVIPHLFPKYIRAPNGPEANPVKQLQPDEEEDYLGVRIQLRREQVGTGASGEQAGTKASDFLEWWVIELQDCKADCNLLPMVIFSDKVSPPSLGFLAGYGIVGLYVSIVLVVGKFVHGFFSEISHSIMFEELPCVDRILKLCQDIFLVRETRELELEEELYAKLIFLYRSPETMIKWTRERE
T1 sequence (E2JF22 whole entry): as the sequence (E2JF22 whole entry R2482H) above, with H2482R counted along it

As to `CCCCCCCCCCCCCCCC(=O)OC[C@H](COP(=O)(O)O[C@@H]1[C@H](O)[C@H](O)[C@@H](OP(=O)(O)O)[C@H](OP(=O)(O)O)[C@H]1O)OC(=O)CCCCCCCCCCCCCCC` [diC16-PIP2], the pIC50 against Piezo1 [1] is approximately 6.52. Moreover, testing at 10 µM against Piezo1 [2] gave an inhibition of 50%.

The term pIC50 denotes the IC50 on a negative log10 scale, so that one unit is a factor of ten. Higher therefore signals a low IC50. A word on the inhibition: it is how much of the control response was suppressed. Low readings indicate a weak effect, high ones a strong effect.
